What was measured:
[1] = target: T1, NTSR2 (Homo sapiens, UniProt O95665); assay: Cellular assay of β-arrestin-2 translocation in cells expressing NTSR2; format: cell-based
T1 construct: expressed in transfected cells; host or cells: HEK293 cells
Method: First, using cellular assays, whether IND candidates such as SBI-810 are similar or better than SBI-553 as β-arrestin biased agonist at NTSR1. is assessed. The chemical entities used in this work were synthesized and validated. However, routine validation of the profile of these compounds is performed routinely using both cellular and in vivo assays. For example, HEK293 cells that express either the NTSR1 or NTSR2 are used to assess the functional profile of the various chemical probes. In addition, a series of genetically engineered mouse lines are used to provide an in vivo validation of novel chemical entities for their abilities to module behaviors in these animals.
Fourth, cellular assays are used to establish that IND ready analogs like SBI-810 are still selective for the NTSR1 rather than NTSR2. The specificity of the lead compounds toward NTSR1. NTSR2. and β-arrestin-2 are tested in respective cellular assays. More specifically, cells expressing either NTSR1 or NTSR2 are used to assess the function of various compound. […] This translocation is not observed in cells expressing NTSR2.
Fourth, genetically engineered mice are used to assess the effects and mechanisms of novel ligands. The specificity of the lead compounds toward NTSR1, NTSR2, and β-arrestin-2 dependent signaling is examined. […]

[2] = global β-arrestin2 KO mice; cited from earlier work
[3] = target: NTSR1 (Homo sapiens, UniProt P30989); assay: [3H]NTS saturation binding to NTSR1-containing HEK293T cell membranes in absence and presence of SBI-553; parameters: expressed in transfected cells; host or cells: HEK293T cell membranes
Chain of NTSR1 (P30989 whole entry): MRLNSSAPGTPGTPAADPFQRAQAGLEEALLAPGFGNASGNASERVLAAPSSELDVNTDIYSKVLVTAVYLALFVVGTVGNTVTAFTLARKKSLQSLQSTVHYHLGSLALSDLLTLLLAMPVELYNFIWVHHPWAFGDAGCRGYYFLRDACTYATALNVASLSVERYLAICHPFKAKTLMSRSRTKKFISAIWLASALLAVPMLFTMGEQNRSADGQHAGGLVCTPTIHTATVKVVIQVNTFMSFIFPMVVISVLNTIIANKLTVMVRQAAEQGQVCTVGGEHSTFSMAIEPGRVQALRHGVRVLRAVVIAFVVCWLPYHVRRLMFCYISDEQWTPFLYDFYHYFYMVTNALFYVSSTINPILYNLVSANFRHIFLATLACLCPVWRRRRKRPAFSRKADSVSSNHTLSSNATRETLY
Excerpt: FIG. 4A-FIG. 4D show SBI-553 activates NTSR1 to stimulate β-arrestin-associated cellular responses.
Preliminary studies provided significant data for this example. SBI-553 was derived from a medicinal chemistry campaign to improve the ML314 probe series and was selected for potency, pharmacokinetic profile, and selectivity for NTSR1 over the NTSR2 (Pinkerton A B, et al. (2019) J Med Chem. 62(17):8357-8363, which is incorporated by reference for its teachings of the making of SBI-553). […] Binding specificity to NTSR1 was further confirmed by comparing membranes containing an off-target receptor (i.e., b2-adrenergic receptor) (Slosky L M, et al. (2020) Cell. 181(6):1364-1379e14). […] These findings indicate that SBI-553 is a β-arrestin-biased ligand that stimulates β-arrestin-mediated processes at NTSR1 […] without activating Gq protein signaling (FIG. 5).

[4] = Paclitaxel (PTX)-induced mechanical allodynia, von Frey paw withdrawal threshold; details: i.t., 1 mg≈2 nmol as printed

T1 sequence (O95665 whole entry, species assumed): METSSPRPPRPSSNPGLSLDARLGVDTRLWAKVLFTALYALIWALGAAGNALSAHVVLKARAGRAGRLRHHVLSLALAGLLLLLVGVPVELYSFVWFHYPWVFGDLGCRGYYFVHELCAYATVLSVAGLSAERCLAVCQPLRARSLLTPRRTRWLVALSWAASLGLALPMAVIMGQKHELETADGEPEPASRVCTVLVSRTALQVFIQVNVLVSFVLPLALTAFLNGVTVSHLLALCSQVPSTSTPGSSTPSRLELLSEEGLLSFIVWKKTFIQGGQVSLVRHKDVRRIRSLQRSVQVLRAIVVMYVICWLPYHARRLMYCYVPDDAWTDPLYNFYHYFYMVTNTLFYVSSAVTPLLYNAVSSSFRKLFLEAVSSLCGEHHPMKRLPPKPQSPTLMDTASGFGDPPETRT

SMILES: COc1ccccc1C1CCN(c2nc(C3(F)CC3)nc3ccc(N(C)CCO)cc23)CC1 [SBI-553]
- Translocation of β-arrestin-2 to intracellular compartments [1]: not observed
- Significant reduction in locomotion [2]: absent
- Effect on total [3H]NTS binding [3]: increased
- Increase of NTS affinity for NTSR1 (Kd) ([3]; dose-dependent): up to 3.9 fold
- Increase of number of available [3H]NTS binding sites (Bmax) ([3]; dose-dependent): up to 3.3 fold
- Duration of reduction of mechanical allodynia [4]: > 24 h
- PTX-induced mechanical allodynia (increased PWT) versus vehicle ([4]; four weeks after PTX): significant reduction of mechanical allodynia

Reference: patent publication US20240398806A1, “Compositions For and Methods of Treating and/or Preventing Pain” (Duke University, priority 2021, published 2024)
